In patent publication US11980616B2, “Treating liver disease by selectively eliminating senescent cells” (Buck Institute for Research on Aging, priority 2014, dated 2024):

Columns and labels:
[1] = test system: doxorubicin-induced senescent cells in p16-3MR mice; test: Removal of doxorubicin-induced senescent cells in p16-3MR transgenic mice; assay type: in vivo, mouse
Description: The capability of Nutlin-3a to remove senescent cells in vivo was determined in transgenic p16-3MR mice (see, e.g., International Application Publication No. WO2013/090645). The transgenic mouse comprises a p16^Ink4a promoter operatively linked to a trimodal fusion protein for detecting senescent cells and for selective clearance of senescent cells in these transgenic mice, which is illustrated in FIG. 7. […] 3MR (tri-modality reporter) is a fusion protein containing functional domains of a synthetic Renilla luciferase (LUC), monomeric red fluorescence protein (mRFP), and truncated herpes simplex virus (HSV)-1 thymidine kinase (tTK), which allows killing by ganciclovir (GCV) (see, e.g., Ray et al., Cancer Res. 64:1323-30 (2004)). The 3MR cDNA was inserted in frame with p16 in exon 2, creating a fusion protein containing the first 62 amino acids of p16, but not a full-length wild-type p16 protein. […] The p16^Ink4a gene promoter (approximately 100 kilobase pairs) was introduced upstream of a nucleotide sequence encoding a trimodal reporter fusion protein. Alternatively, a truncated p16^Ink4a promoter may be used (see, e.g., Baker et al., Nature, supra; International Application Publication No. WO2012/177927; Wang et al., supra). Thus, the expression of 3MR is driven by the p16^Ink4a promoter in senescent cells only. The detectable markers, LUC and mRFP permitted detection of senescent cells by bioluminescence and fluorescence, respectively. […] Transgenic founder animals, which have a C57B16 background, were established and bred using known procedures for introducing transgenes into animals (see, e.g., Baker et al., Nature 479:232-36 (2011)).
Female C57/BL6 p16-3MR mice were randomized into doxorubicin+Nutlin-3a treated or doxorubicin only treated groups (see FIG. 6). Senescence was induced by intraperitoneal administration of doxorubicin at 10 mg/kg to the mice ten days prior to administration of Nutlin-3a (Day −10). Nutlin-3a (25 mg/kg) was administered intraperitoneally daily from day 10 to day 24 post-doxorubicin treatment (Group=9 mice). Control mice (doxorubicin treated) were injected with equal volumes of PBS (Group=3 mice). Luminescence imaging (Xenogen Imaging system) was performed at Day 0 (i.e., 10 days post-doxorubicin treatment) as a baseline for each mouse (100% intensity).
Luminescence imaging of the mice was performed on day 7, 14, 21, 28, and 35 following the initiation of Nutlin-3a treatment. Reduction of luminescence (L) was calculated as: L=(Imaging post-Nutlin-3a treatment)/(Baseline Imaging)[…]. If L is greater than or equal to 100%, the number of senescent cells was not reduced. If L is less than 100%, then the number of senescent cells was reduced. Every mouse was calculated independently, and background was subtracted from each sample.
Experiments were performed to determine the effect of Nutlin-3a treatment on expression of genes associated with senescence. Groups of female C57/BL6 p16-3MR were treated as described above. Three weeks after the end of Nutlin-3a treatment (day 35), the doxorubicin treated mice (control) (N=3) and doxorubicin+Nutlin-3a-treated mice (N=6) were sacrificed. […]
RNA was analyzed for mRNA levels of endogenous senescence markers (p21, p16^INK4a (p16), and p53) and SASP factors (mmp-3 and IL-6) relative to actin mRNA (control for cDNA quantity) using the Roche Universal Probe Library for real-time PCR assay. […]

[2] = test system: non-senescent mouse embryonic fibroblasts (Non Sen MEFs); test: Cell count toxicity assay, non-senescent MEF; assay type: cell-based; settings: 0, 2.5, 10 μM, 9 days
Description: Foreskin fibroblast cell lines HCA2 and BJ, lung fibroblast cell line IMR90, and mouse embryonic fibroblasts were seeded in six-well plates and induced to senesce with 10 Gy of ionizing radiation (IR) or a 24 hr treatment with doxorubicin (Doxo). Senescent phenotype was allowed to develop for at least 7 days, at which point a cell count was made to determine the baseline number of cells. Nutlin-3a treatment was then initiated for a period of at least 9 days. Media alone or media with drug as appropriate was refreshed at least every three days. At the end of the assay time period, cells are counted. Each condition was seeded in three plate wells and counted independently. Initial cell count serves as a control to determine the induction of senescence, as compared to the last day count without nutlin treatment. Initial non-senescent cell count serves as a proxy to determine Nutlin-3a toxicity.
Non-senescent foreskin fibroblasts (HCA2), lung fibroblasts (IMR90), and mouse embryonic fibroblasts (MEF) were treated with varying concentrations (0, 2.5 μM, and 10 μM) of Nutlin-3a for a period of 9 days to assess Nutlin-3a toxicity. Cell counts were taken at the start (NS start) and end of Nutlin-3a treatment. The difference between counts of cells not treated with Nutlin-3a on day 9 (NS 0) and cell counts determined at day zero (NS start) reflects the cell growth over the indicated time period. […]

SMILES: COc1ccc(C2=N[C@@H](c3ccc(Cl)cc3)[C@@H](c3ccc(Cl)cc3)N2C(=O)N2CCNC(=O)C2)c(OC(C)C)c1 [Nutlin-3a]
- Luminescence associated with doxorubicin-induced senescence (% of baseline) ([1]; 25 mg/kg i.p. daily day 10 to 24 post-doxorubicin): reduced luminescence
- Decrease in luminescence ([1]; 25 mg/kg i.p. daily, at day 14, day 28 and day 35): statistically significant decrease
- γH2AX positive cells (DNA damage) in lung sections ([1]; day 35, vs doxorubicin alone): reduced the number of cells with DNA damage
- mRNA of SASP factors (mmp-3, IL-6) and senescence markers (p21, p16, p53) ([1]; skin and fat, day 35, vs doxorubicin alone): reduced expression
- Senescence-associated β-gal intensity in fat biopsies ([1]; three weeks after treatment, vs doxorubicin alone): reduced senescence-associated β-gal intensity
- Proliferation (percent growth) [2]: reduces proliferation
- Toxicity (cell number vs starting level) [2]: non-toxic
